Laboratory results published in publication PMC10548524, “Evolutionary adaptation from hydrolytic to oxygenolytic catalysis at the α/β-hydrolase fold” (Chemical Science, 2023).

Tests used:
[1] = target: T1, HOD (1-H-3-hydroxy-4-oxoquinaldine 2,4-dioxygenase) (Paenarthrobacter nitroguajacolicus, UniProt O31266, S101A); experiment: X-ray crystallography, normoxic and O2-pressurised (soak-and-freeze); format: binding; settings: 2.0 Å; with water (normoxic) or O2 (40 bar, 2 min) at the R-site; active site
T1 construct: crystallised protein; construct, tags and host only in supplement

[2] = target: T2, HOD (1-H-3-hydroxy-4-oxoquinaldine 2,4-dioxygenase) (Paenarthrobacter nitroguajacolicus, UniProt O31266, H251A); experiment: as above; format: binding; settings: 2.0 Å (normoxic) and 2.1 Å (hyperoxic, 40 bar O2, 2 min); active site, non-reactive substrate analogue
T2 construct: crystallised protein; construct, tags and host only in supplement

Cc1cc(=O)c2ccccc2[nH]1 [MQO, 2-methyl-quinolin-4(1H)-one]
X-ray crystallography, normoxic and O2-pressurised (soak-and-freeze) [1]: we then solved the structure of HOD^S101A in a complex with MQO
X-ray crystallography, normoxic and O2-pressurised (soak-and-freeze) [2]: MQO binds in the active site similarly to QND
